From ChEMBL document CHEMBL1201862, “PubChem BioAssay data set” (2004) come the findings set out here.

For orientation: GI50 means the concentration at which growth is held to half of that of the control.

Common to all, as to test: DTP human tumour cell line panel, 48 h
In experiment [1] the test system is OVCAR-5.
The subject of experiment [2] is A498.
In experiment [3] the test system is UACC-62.
Experiment [4] has as its system Hs-578T.
Experiment [5] concerns MDA-MB-435.
For experiment [6], the system named is RPMI-8226.
In experiment [7] the test system is A549.
Experiment [8] has as its system SF-539.
For experiment [9], the system named is SW-620.
In experiment [10] the test system is SF-295.
Experiment [11] relates to UO-31.
For experiment [12], the system named is OVCAR-3.
The test system of experiment [13] is SK-OV-3.
For experiment [14], the system named is Malme-3M.
The subject of experiment [15] is NCI-H23.
The subject of experiment [16] is CCRF-CEM.
The subject of experiment [17] is SK-MEL-28.
Experiment [18] concerns MOLT-4.
Experiment [19] deals with DU-145.

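In this assay, cells in 96-well plates receive the compound at five concentrations for 48 hours. Endpoints are linearly interpolated between the surrounding concentrations. GI50 marks 50% less growth.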 Activity calls are given as the source filed them. Rule as the data show it: active = GI50 up to about 1.1 µM and inactive = higher.

Regarding `Cc1ccc(C2=NOC(=O)[C@@H]3CCCC[C@@H]23)cc1`, the GI50 in experiment [1], in experiment [2], in [3], in experiment [4], in experiment [5] and in experiment [6] was > 100 µM (inactive) throughout. Also, the GI50 is > 10 µM (inactive) in experiment [7]; > 100 µM (inactive) in experiment [8]; > 100 µM (inactive) in experiment [9]; > 100 µM (inactive) in experiment [10]; > 100 µM (inactive) in [11]; > 100 µM (inactive) in [12]. Also, the GI50 in experiment [13], in [14], in [15], in experiment [16], in experiment [17] and in experiment [18] was > 100 µM (inactive) throughout. Besides, the GI50 in [19] is 27.2 µM (inactive).

In the case of `COc1ccc(Nc2nc3ccccc3nc2C(=O)O)cc1OC`, the GI50 was > 100 µM (inactive) in experiment [1]; 21.3 µM (inactive) in [2]; 60.8 µM (inactive) in experiment [3]; > 100 µM (inactive) in experiment [4]; > 100 µM (inactive) in [5]; 65.8 µM (inactive) in [6]. Besides, the GI50 in [7] is > 100 µM (inactive); in experiment [8] it was > 100 µM (inactive); in experiment [9] it was > 100 µM (inactive); in experiment [10] it was 33.2 µM (inactive); in [11], 29.6 µM (inactive); in experiment [12], 40.2 µM (inactive). Also, the GI50 in experiment [13] is 64.4 µM (inactive); in experiment [14], 34 µM (inactive); in experiment [15], 80.4 µM (inactive); in experiment [16], 47.3 µM (inactive); in [17], 50.2 µM (inactive); in [18] it was 65 µM (inactive). In addition, the GI50 in experiment [19] is > 100 µM (inactive).

With `Cc1cn2c(/C=N/NC(=N)N)c(-c3ccc(Cl)c([N+](=O)[O-])c3)nc2s1`, the GI50 in experiment [1] was 1.17 µM (inactive); in [2] it was 0.07 µM (active); in [3], 1.78 µM (inactive); in experiment [4], 0.973 µM (active); in experiment [5] it was 0.611 µM (active); in [6] it was 0.904 µM (active). The GI50 in experiment [7] is 1.61 µM (inactive); in [8], 1.73 µM (inactive); in experiment [9], 0.244 µM (active); in experiment [10], 1.3 µM (inactive); in [11], 1.88 µM (inactive); in [12], 1.13 µM (inactive). Further, the GI50 in [13] was 1.76 µM (inactive); in experiment [14] it was 1.83 µM (inactive); in [15], 1.43 µM (inactive); in [16] it was 0.267 µM (active); in experiment [17] it was 1.71 µM (inactive); in [19] it was 1.79 µM (inactive).

For `CCOP(=O)(CC1OC(CO)C(O)C1O)OCC` (stereo not given), the GI50 in experiment [1], in [2], in experiment [3], in [4], in [5] and in experiment [6] was > 100 µM (inactive) throughout. Besides, the GI50 in [7], in experiment [8], in experiment [9], in experiment [10], in experiment [11] and in experiment [12] was > 100 µM (inactive) in each case. Besides, the GI50 in [13] is > 100 µM (inactive); in [14], > 100 µM (inactive); in [15], > 46.7 µM (inactive); in experiment [16] it was > 100 µM (inactive); in [17], > 100 µM (inactive); in [18], > 100 µM (inactive). In addition, the GI50 in experiment [19] is > 100 µM (inactive).

In the case of `O=C(CC(=O)Nc1ccccc1Cl)NNC(c1cc(/N=N/c2ccc(Br)cc2)ccc1O)P(O)O` (stereo not given), the GI50 was 3.61 µM (inactive) in experiment [1]; 2.27 µM (inactive) in experiment [2]; 0.964 µM (active) in experiment [3]; > 10 µM (inactive) in experiment [4]; 2.04 µM (inactive) in experiment [5]; 2.84 µM (inactive) in experiment [6]. Besides, the GI50 in experiment [7] was 3.82 µM (inactive); in [8], 0.951 µM (active); in experiment [9] it was 0.647 µM (active); in experiment [10], 1.67 µM (inactive); in [11] it was 0.995 µM (active); in experiment [12] it was 0.348 µM (active). For the same molecule, the GI50 in experiment [13] was 3.03 µM (inactive); in experiment [14], 3.6 µM (inactive); in [15], 2.53 µM (inactive); in [16] it was 0.451 µM (active); in [17], 7.43 µM (inactive); in [18] it was 0.338 µM (active). Moreover, the GI50 in [19] is 2.42 µM (inactive).

`S=C1/C(=N/c2ccccc2)N(C2CCCCC2)/C(=N\C2CCCCC2)N1c1ccccc1`: the GI50 was > 100 µM (inactive) in [1]; > 100 µM (inactive) in [2]; 76.2 µM (inactive) in experiment [3]; > 100 µM (inactive) in experiment [4]; > 100 µM (inactive) in experiment [5]; > 100 µM (inactive) in experiment [6]. Moreover, the GI50 in experiment [7] is 60 µM (inactive); in experiment [8], 1.18 µM (inactive); in experiment [9] it was > 100 µM (inactive); in experiment [10], 36 µM (inactive); in [11], > 100 µM (inactive); in [13], > 100 µM (inactive). The GI50 in experiment [14], in experiment [15], in [16], in experiment [17], in experiment [18] and in [19] was > 100 µM (inactive) in each case.

`O=c1c(Sc2ncccn2)c(Sc2ncccn2)cnn1CCl`: the GI50 is 7.21 µM (inactive) in experiment [1]; 19.1 µM (inactive) in [2]; 5.75 µM (inactive) in experiment [3]; 14.5 µM (inactive) in [4]; 1.77 µM (inactive) in experiment [5]; 1.67 µM (inactive) in [6]. Also, the GI50 was 16.4 µM (inactive) in experiment [7]; 1.52 µM (inactive) in [8]; 2.4 µM (inactive) in experiment [9]; 15.3 µM (inactive) in experiment [10]; 1.7 µM (inactive) in experiment [11]; 2.02 µM (inactive) in experiment [12]. Also, the GI50 is 11.1 µM (inactive) in experiment [13]; 2.05 µM (inactive) in [14]; 4.67 µM (inactive) in experiment [15]; 0.295 µM (active) in experiment [16]; 3.41 µM (inactive) in experiment [17]; 2.72 µM (inactive) in experiment [18]. Moreover, in experiment [19], the GI50 is 2.64 µM (inactive).

Consider `Cc1c(NC(=O)Nc2c(Cl)cccc2Cl)c(=O)n(-c2ccccc2)n1C`, for which the GI50 in [1], in experiment [2], in experiment [3], in [4], in experiment [5] and in experiment [6] was > 100 µM (inactive) in each case. Further, the GI50 in experiment [7], in experiment [8], in [9], in [10], in experiment [11] and in experiment [12] was > 100 µM (inactive) throughout. The GI50 is > 100 µM (inactive) in [13]; > 100 µM (inactive) in experiment [14]; > 100 µM (inactive) in experiment [15]; 46.7 µM (inactive) in experiment [16]; > 100 µM (inactive) in [17]; > 100 µM (inactive) in [18]. In addition, the GI50 in experiment [19] was > 100 µM (inactive).

Turning to `COc1ccc2cc(C(C)C(=O)N3CCOC3=O)ccc2c1` (stereo not given), the GI50 in experiment [1] was > 100 µM (inactive); in experiment [2] it was 71.4 µM (inactive); in experiment [3], > 100 µM (inactive); in experiment [4], > 100 µM (inactive); in experiment [5], > 100 µM (inactive); in experiment [6], > 100 µM (inactive). In addition, the GI50 in experiment [7], in [8], in experiment [9], in experiment [10], in experiment [11] and in experiment [12] was > 100 µM (inactive) in each case. Also, the GI50 in experiment [13], in [14], in experiment [15], in [16], in [17] and in experiment [18] was > 100 µM (inactive) each time. The GI50 in experiment [19] is > 100 µM (inactive).

Consider `CC(=O)OC1/C(=C/c2ccc([N+](=O)[O-])cc2)C[C@H]2[C@@H]3CC=C4C[C@@H](OC(C)=O)CC[C@]4(C)[C@H]3CC[C@]12C` (stereo not given in full), for which the GI50 in experiment [1] is > 100 µM (inactive); in experiment [2], > 52.6 µM (inactive); in experiment [3], > 100 µM (inactive); in experiment [4], 74.5 µM (inactive); in experiment [5] it was > 100 µM (inactive); in [6], > 71.3 µM (inactive). The GI50 in experiment [7] was > 100 µM (inactive); in experiment [8] it was 59.6 µM (inactive); in experiment [9] it was > 100 µM (inactive); in experiment [10] it was > 73.6 µM (inactive); in experiment [11] it was > 100 µM (inactive); in experiment [12] it was > 100 µM (inactive). Besides, the GI50 in [13] is 41.4 µM (inactive); in [14], > 100 µM (inactive); in [15] it was > 100 µM (inactive); in experiment [16], > 40.6 µM (inactive); in [17], > 100 µM (inactive); in experiment [19], > 100 µM (inactive).

For the molecule `N=C(N)SCc1nc(-c2ccc(Cl)cc2)no1`, the GI50 in experiment [1] was 10.3 µM (inactive); in [2], 16.8 µM (inactive); in [3] it was 9.79 µM (inactive); in [4], 42 µM (inactive); in experiment [5], 12.2 µM (inactive); in [6] it was 5.05 µM (inactive). For the same molecule, the GI50 is 38.4 µM (inactive) in experiment [7]; 15.8 µM (inactive) in [8]; 12.2 µM (inactive) in experiment [9]; 17.9 µM (inactive) in experiment [10]; 11.9 µM (inactive) in experiment [12]; 26.9 µM (inactive) in experiment [13]. The GI50 in experiment [14] was 16.9 µM (inactive); in experiment [15] it was 34.4 µM (inactive); in [16], 3.84 µM (inactive); in [17], 16.9 µM (inactive); in experiment [18] it was 3.56 µM (inactive); in experiment [19] it was 15.7 µM (inactive).
